In patent publication US11339165B2, “Pyrazolopyrimidines having activity against the respiratory syncytial virus (RSV)” (priority 2017, dated 2022):

Tests used:
[1] = tested on: rgRSV224 virus; assay: Antiviral activity: rgRSV224 (GFP) replication in HeLa cells; type: cell-based, respiratory syncytial virus (RSV); conditions: human respiratory syncytial virus, HeLa, 72 h, read-out: RSV HELA EC50 (μM), rgRSV224 virus (MOI=1), HeLa cells, GFP expression three days post-virus exposure
[2] = in vitro; conditions: human, TOX HELA CC50 (μM)

SMILES	EC50 [1]	melting point	CC50 at 3 days [2]
C[C@@H]1c2ccccc2CCN1C(=O)c1cc(C2CC2)n2nc(-c3cnc(N4CC[C@H](C(=O)NS(C)(=O)=O)C4)cc3F)cc2n1 [Compound 54, (3S)-1-(5-{7-Cyclopropyl-5-[(1R)-1-methyl-1,2,3,4-tetrahydroisoquinoline-2-carbonyl]-pyrazolo[1,5-a]pyrimidin-2-yl}-4-fluoropyridin-2-yl)-N-methanesulfonylpyrrolidine-3-carboxamide]	0.192 µM	254.46 °C	77.4 µM
C[C@@H]1c2ccccc2CCN1C(=O)c1cc(C2CC2)n2nc(-c3ccc(N4C[C@H](C(N)=O)C[C@@H]4C)cc3F)cc2n1 (single isomer, unassigned) [Compound 33, (3*R,5*S)-1-(4-{7-cyclopropyl-5-[(1R)-1-methyl-1,2,3,4-tetrahydroisoquinoline-2-carbonyl]pyrazolo[1,5-a]pyrimidin-2-yl}-3-fluorophenyl)-5-methylpyrrolidine-3-carboxamide]	0.043 µM	292.7 °C	34.5 µM
COCCOc1cc(N2CC[C@H](C(N)=O)C2)nc(F)c1-c1cc2nc(C(=O)N3CCc4ccccc4[C@H]3C)cc(C3CC3)n2n1 [Compound 87, (3S)-1-(5-{7-Cyclopropyl-5-[(1R)-1-methyl-1,2,3,4-tetrahydroisoquinoline-2-carbonyl]-pyrazolo[1,5-a]pyrimidin-2-yl}-6-fluoro-4-(2-methoxyethoxy)pyridin-2-yl)pyrrolidine-3-carboxamide]	0.215 µM	152.28 °C	47.4 µM
C[C@@H]1c2ccccc2CCN1C(=O)c1cc(C2CC2)n2nc(-c3cc(F)c(N4CC[C@H](C(N)=O)C4)cc3F)cc2n1 [Compound 55, (3S)-1-(4-{7-Cyclopropyl-5-[(1R)-1-methyl-1,2,3,4-tetrahydroisoquinoline-2-carbonyl]-pyrazolo[1,5-a]pyrimidin-2-yl}-2,5-difluorophenyl)pyrrolidine-3-carboxamide]	0.016 µM	253.3 °C	> 100 µM
C[C@@H]1c2ccsc2CCN1C(=O)c1cc(C2CC2)n2nc(-c3ccc(N4CC[C@H](C(N)=O)C4)cc3F)cc2n1 (single isomer, unassigned) [Compound 46, (3S)-1-(4-{7-Cyclopropyl-5-[(4*R)-4-methyl-4,5,6,7-tetrahydro-thieno[3,2-c]pyridine-5-carbonyl]pyrazolo[1,5-a]pyrimidin-2-yl}-3-fluorophenyl)pyrrolidine-3-carboxamide]	0.007 µM	270 °C	31.3 µM
C[C@@H]1c2ccccc2CCN1C(=O)c1cc(C2CC2)n2nc(-c3ccc(N4CC[C@H](C(N)=O)C4)cc3F)cc2n1 [Compound 36, (3S)-1-(4-{7-Cyclopropyl-5-[(1R)-1-methyl-1,2,3,4-tetrahydroisoquinoline-2-carbonyl]pyrazolo[1,5-a]pyrimidin-2-yl}-3-fluorophenyl)pyrrolidine-3-carboxamide]	0.012 µM	237.7 °C	29.3 µM
C[C@@H]1c2ccccc2CCN1C(=O)c1cc(C2CC2)n2nc(-c3cnc(N4CC[C@H](C(N)=O)C4)cc3F)cc2n1 [Compound 52, (3S)-1-(5-{7-Cyclopropyl-5-[(1R)-1-methyl-1,2,3,4-tetrahydroisoquinoline-2-carbonyl]-pyrazolo[1,5-a]pyrimidin-2-yl}-4-fluoropyridin-2-yl)pyrrolidine-3-carboxamide]	0.014 µM	246.17 °C	41.3 µM
C[C@@H]1c2ccccc2CCN1C(=O)c1cc(C2CC2)n2nc(-c3ccc(N4CC[C@H](C(N)=O)[C@@H]4C)cc3F)cc2n1 (single isomer, unassigned) [Compound 83, (2*S,3*S)-1-(4-{7-Cyclopropyl-5-[(1R)-1-methyl-1,2,3,4-tetrahydroisoquinoline-2-carbonyl]pyrazolo[1,5-a]pyrimidin-2-yl}-3-fluorophenyl)-2-methylpyrrolidine-3-carboxamide]	0.044 µM	235.56 °C	42.4 µM
C[C@@H]1c2ccccc2CCN1C(=O)c1cc(C2CC2)n2nc(-c3ccc(N4CC[C@@H](NS(C)(=O)=O)C4)cc3F)cc2n1 [Compound 11, N-[(3R)-1-(4-{7-Cyclopropyl-5-[(1R)-1-methyl-1,2,3,4-tetrahydroisoquinoline-2-carbonyl]pyrazolo[1,5-a]pyrimidin-2-yl}-3-fluorophenyl)pyrrolidin-3-yl]methane-sulfonamide]	0.044 µM	159.35 °C	> 100 µM
C[C@@H]1c2ccccc2CCN1C(=O)c1cc(C2CC2)n2nc(-c3ccc(N4CC[C@H](C(N)=O)[C@H]4C)cc3F)cc2n1 (single isomer, unassigned) [Compound 81, (2*R,3*S)-1-(4-{7-Cyclopropyl-5-[(1R)-1-methyl-1,2,3,4-tetrahydroisoquinoline-2-carbonyl]pyrazolo[1,5-a]pyrimidin-2-yl}-3-fluorophenyl)-2-methylpyrrolidine-3-carboxamide]	0.099 µM	271.19 °C	38.4 µM
C[C@@H]1c2ccccc2CCN1C(=O)c1cc(C2CC2)n2nc(-c3ccc(N4CC[C@H](C(N)=O)C4)nc3F)cc2n1 [Compound 49, (3S)-1-(5-{7-Cyclopropyl-5-[(1R)-1-methyl-1,2,3,4-tetrahydroisoquinoline-2-carbonyl]-pyrazolo[1,5-a]pyrimidin-2-yl}-6-fluoropyridin-2-yl)pyrrolidine-3-carboxamide]	0.024 µM	239.19 °C	32.3 µM
C[C@@H]1c2ccccc2CCN1C(=O)c1cc(C2CC2)n2nc(-c3ccc(N4CCC(O)CC4)cc3F)cc2n1 [Compound 74, 1-(4-{7-Cyclopropyl-5-[(1R)-1-methyl-1,2,3,4-tetrahydroisoquinoline-2-carbonyl]-pyrazolo[1,5-a]pyrimidin-2-yl}-3-fluorophenyl)piperidin-4-ol]	0.076 µM	144.01 °C	48.1 µM
C[C@@H]1c2ccccc2CCN1C(=O)c1cc(C2CC2)n2nc(-c3ccc(N4CC[C@@H](S(C)(=O)=O)C4)cc3F)cc2n1 [Compound 17, (1R)-2-(7-Cyclopropyl-2-{2-fluoro-4-[(3R)-3-methanesulfonylpyrrolidin-1-yl]phenyl}-pyrazolo[1,5-a]pyrimidine-5-carbonyl)-1-methyl-1,2,3,4-tetrahydroisoquinoline]	0.05 µM	258.48 °C	> 100 µM
C[C@@H]1c2ccccc2CCN1C(=O)c1cc(-c2ccc(C#N)cc2)n2nc(-c3ccc(N4CC[C@H](C(N)=O)C4)cc3F)cc2n1 [Compound 62, (3S)-1-{4-[7-(4-Cyanophenyl)-5-[(1R)-1-methyl-1,2,3,4-tetrahydroisoquinoline-2-carbonyl]pyrazolo[1,5-a]pyrimidin-2-yl]-3-fluorophenyl}pyrrolidine-3-carboxamide]	0.043 µM	173.36 °C	> 100 µM
C[C@@H]1c2ccccc2CCN1C(=O)c1cc(C2CC2)n2nc(-c3ccc(N4CC[C@@H](C(N)=O)[C@H]4C)cc3F)cc2n1 (single isomer, unassigned) [Compound 80, (2*R,3*R)-1-(4-{7-Cyclopropyl-5-[(1R)-1-methyl-1,2,3,4-tetrahydroisoquinoline-2-carbonyl]pyrazolo[1,5-a]pyrimidin-2-yl}-3-fluorophenyl)-2-methylpyrrolidine-3-carboxamide]	0.091 µM	182.93 °C	35.9 µM
C[C@@H]1c2ccccc2CCN1C(=O)c1cc(C2CC2)n2nc(-c3ccc(N4CC(CC(N)=O)C4)cc3F)cc2n1 [Compound 65, 2-[1-(4-{7-Cyclopropyl-5-[(1R)-1-methyl-1,2,3,4-tetrahydroisoquinoline-2-carbonyl]-pyrazolo[1,5-a]pyrimidin-2-yl}-3-fluorophenyl)azetidin-3-yl]acetamide]	0.048 µM	211.64 °C	39.1 µM
C[C@@H]1c2ccccc2CCN1C(=O)c1cc(C2CC2)n2nc(-c3ccc(N4CC[C@@H](S(C)(=N)=O)C4)cc3F)cc2n1 (stereo partly drawn) [Compound 79, [(3R)-1-(4-{7-Cyclopropyl-5-[(1R)-1-methyl-1,2,3,4-tetrahydroisoquinoline-2-carbonyl]-pyrazolo[1,5-a]pyrimidin-2-yl}-3-fluorophenyl)pyrrolidin-3-yl](imino)methyl-λ^6-sulfanone]	0.476 µM	285.54 °C	13.3 µM
C[C@@H]1c2ccccc2CCN1C(=O)c1cc(C2CC2)n2nc(-c3ccc(N4CC(C(N)=O)C4)cc3F)cc2n1 [Compound 91, 1-(4-{7-Cyclopropyl-5-[(1R)-1-methyl-1,2,3,4-tetrahydroisoquinoline-2-carbonyl]pyrazolo[1,5-a]pyrimidin-2-yl}-3-fluorophenyl)azetidine-3-carboxamide]	0.036 µM	236.01 °C	28.3 µM
CNC(=O)C1CCN(c2ccc(-c3cc4nc(C(=O)N5CCc6ccccc6[C@H]5C)cc(C5CC5)n4n3)c(F)c2)CC1 [Compound 72, 1-(4-{7-Cyclopropyl-5-[(1R)-1-methyl-1,2,3,4-tetrahydroisoquinoline-2-carbonyl]-pyrazolo[1,5-a]pyrimidin-2-yl}-3-fluorophenyl)-N-methylpiperidine-4-carboxamide]	0.087 µM	252.4 °C	> 100 µM
C[C@@H]1c2ccccc2CCN1C(=O)c1cc(C2CC2)n2nc(-c3ccc(N4C[C@H](C(N)=O)C[C@H]4C)cc3F)cc2n1 (single isomer, unassigned) [Compound 32, (3*R,5*R)-1-(4-{7-cyclopropyl-5-[(1R)-1-methyl-1,2,3,4-tetrahydroisoquinoline-2-carbonyl]pyrazolo[1,5-a]pyrimidin-2-yl}-3-fluorophenyl)-5-methylpyrrolidine-3-carboxamide]	0.06 µM	297.57 °C	32.1 µM
